# Measurements taken from US20200268864A1, “CANCER VACCINE COMPOSITIONS AND METHODS FOR USING SAME TO TREAT CANCER” (Dana-Farber Cancer Institute, Inc., priority 2017, published 2020).
# “Also recorded” adds a separate entry of the source.
# Legend:
# PBM tumor-bearing mice = experiment: Flow cytometry of tumor-infiltrating immune cells in PBM tumors; settings: mouse, in vivo
# Procedure: (§1) Tumors were first mechanically disrupted by chopping, then chemically digested in collagenase buffer (8 mL DMEM, 0.1 mL 1M HEPES, 0.5 mL FBS, 0.2 mL Pen/Strep, 1 m, 10× collagenase/hyaluronidase (Stemcell Technologies), 0.2 mL of 1 mg/mL DNase I (Stemcell Technologies) at 37° C. for 45 min. Single-cell suspensions of spleen and lymph nodes were obtained by mashed through a 70 um strainer using the plunger of a 3 mL or 5 mL syringe. Single cells suspensions were treated with red blood lysis buffer (4 mL NH4Cl+1 mL PBS with 2% calf serum) and washed with FACS buffer. Single cells suspensions were incubated with LIVE/DEAD Fixable Aqua Dead Cell Stain (Life Technologies, Cat # L34965) for 30 min and then blocked with anti-CD16/32 (BioLegend, clone 93) for 20 min on ice. Samples were then incubated with appropriate antibodies for 30 min. on ice. The Foxp3 staining buffer set (eBioscience, Cat #00-5523-00) was applied for intracellular markers staining. For the intracellular cytokine analysis, cells were stimulated with Leukocyte Activation Cocktail (BD Biosciences, Cat #550583) at 37° C. for 5 hours prior to FACS staining. The following antibodies were used in the experiments and were purchased from BioLegend unless otherwise indicated: CD45 (clone 30-F11), TCRβ (clone H57-597), CD4 (clone RM4-5), CD8 (clone 53-6.7), CD44 (clone IM7), CD62L (MEL-14), CD25 (PC61), IFNγ (clone XMG1.2), TNFα(clone MP6-XT22), PD-1 (clone 29F.1A12), Tim-3 (clone RMT3-23), LAG-3 (clone C9B7W), CD11b (clone M1/70), CD11c (clone […]), F4/80 (clone BM8), Gr-1 (clone RB6-BC5), Ly-6C (clone HK1.4), Ly-6G (clone 1A8), MHCII (clone M5/114.15.2), CD80 (clone 16-10A1), CD86 (clone GL-1), MHC1 (clone KH114). FoxP3 (clone FJK-16 s; eBioscience), Phospho-IRF-3 (Ser396) (clone D6O1M, Cell signaling technology), Phospho-TBK1/NAK (Ser172) (clone D52C2, Cell signaling technology), and LIVE/DEAD® Fixable Aqua Dead Cell Stain Kit (Life Technologies Cat L34965). Flow cytometry was performed on an LSR II (BD Biosciences) or LSRFortessa™ HTS (BD Biosciences) at the DFCI flow cytometry core facility, and all the data were analyzed using FlowJo software.
# [1] = system: STING pathway in PBM tumors; experiment: STING pathway activation in PBM tumors (p-TBK1/p-IRF3 flow cytometry, IFN-β/CXCL10 RT-qPCR); format: in vivo, mouse; settings: for phosphorylation of TBK1 and IRF3 in intratumoral DCs and macrophages: PBM tumors
# Procedure: as §1, with “FoxP3 (clone FJK-16 s; eBioscience), Phospho-IRF-3 (Ser396) (clone D6O1M, Cell signaling technology), Phospho-TBK1/NAK (Ser172) (clone D52C2, Cell signaling technology), and LIVE/DEAD® Fixable Aqua Dead Cell Stain Kit (Life Technologies Cat L34965).” left out, “software. […]” for “software.”
# [2] = system: STING pathway in BMDCs co-cultured with PBM cells; experiment: Co-culture of BMDCs with olaparib-treated PBM tumor cells; format: cell-based, mouse
# Procedure: Blood was obtained by retro-orbital sampling at intermediate time points or experimental end points. Blood cells and plasma/sera were separated by centrifugation at 1,500×g for 5 min. at 4° C. Plasmaisera were sent out to Eve Technologies for cytokine array analysis (Chemokine Array 31-Plex and Mouse Procarta IFN 2-plex Featured Assay). Plasma/sera were applied to ELISA according to manufacturer's instructions. For in vitro experiments, cell culture supernatants were obtained by centrifugation at 1,500×g for 5 min. at 4° C. to remove all debris and cells, and were then subjected to ELISA analysis. IFN-β was detected using the LEGEND MAX™ Mouse IFN-β ELISA Kit (BioLegend).
# Bone marrow cells were isolated from FVB/NJ mice and cultured in RPMI-1640 containing 10% FBS and 20 ng/ml GM-CSF. BMDCs (bone marrow derived dendritic cells) were harvested for in vitro co-culture assay on day 7 to day 10. About 3×10^5 PBM or PPM tumor cells were cultured in a 6-well plate for 24 hr. and then treated with DMSO or olaparib. After 24 hr incubation with DMSO, olaparib, or olaparib in combination with other drugs (cell cycle inhibitor or apoptosis inhibitor), drugs were removed and tumor cells were washed twice with PBS. BMDCs were added and co-cultured with PBM or PPM cells at a ratio of 1:1 in 1.5 ml culture media in the presence of GM-CSF (20 ng/ml) and lipofectamine (2 μl) for 24 hr. Co-cultured cells were harvested for flow cytometry analysis and floating cells (percentage of BMDCs is about 90%), or RNA analysis. Cell culture supernatants were collected for detection of IFN-β with the ELISA kit. BMDCs generated from C57BL/6J mice were applied for the coculture of BMDCs with ID8 tumor cells. Human dendritic cells purchased from Lonza were used for the coculture of human DCs with DMSO or olaparib-treated human ovarian cancer cells ([…] and UWB1.289+BRCA1).
# About 50 to 100 mg of tumor samples were homogenized in 1 ml of TRIzol™ Reagent supplied with 200 μl of stainless steel beads and 0.2 ml of chloroform was added to the samples. Samples were vortexed vigorously for 15 seconds and then incubated at room temperature for 2 to 3 minutes. After centrifugation at 12,000×g for 15 minutes at 4° C., upper aqueous phase of the samples was carefully removed to a new tube and the total RNA was purified using an RNeasy® Mini Kit (Qiagen) according to manufactory's instruction. For the in vitro cultured cell samples, total RNA was isolated using an RNeasy® Mini Kit. The qPCR was performed on an Applied Biosystems 7300 machine after the total RNA was reverse transcribed to cDNA using the SuperScript® III First-Strand Synthesis System (Invitrogen). Primers used for qPCR were as follows: […]
# PD-L1 on PBM tumor cells = experiment: PD-L1 expression on PBM tumor cells (RT-qPCR, flow cytometry); design: species or system mouse; settings: PBM tumors in vivo and cultured PBM cells
# Procedure: Tumors were first mechanically disrupted by chopping, then chemically digested in collagenase buffer (8 mL DMEM, 0.1 mL 1M HEPES, 0.5 mL FBS, 0.2 mL Pen/Strep, 1 m, 10× collagenase/hyaluronidase (Stemcell Technologies), 0.2 mL of 1 mg/mL DNase I (Stemcell Technologies) at 37° C. for 45 min. Single-cell suspensions of spleen and lymph nodes were obtained by mashed through a 70 um strainer using the plunger of a 3 mL or 5 mL syringe. Single cells suspensions were treated with red blood lysis buffer (4 mL NH4Cl+1 mL PBS with 2% calf serum) and washed with FACS buffer. Single cells suspensions were incubated with LIVE/DEAD Fixable Aqua Dead Cell Stain (Life Technologies, Cat # L34965) for 30 min and then blocked with anti-CD16/32 (BioLegend, clone 93) for 20 min on ice. Samples were then incubated with appropriate antibodies for 30 min. on ice. The Foxp3 staining buffer set (eBioscience, Cat #00-5523-00) was applied for intracellular markers staining. For the intracellular cytokine analysis, cells were stimulated with Leukocyte Activation Cocktail (BD Biosciences, Cat #550583) at 37° C. for 5 hours prior to FACS staining. […] Flow cytometry was performed on an LSR II (BD Biosciences) or LSRFortessa™ HTS (BD Biosciences) at the DFCI flow cytometry core facility, and all the data were analyzed using FlowJo software. […]
# PBM and PPM tumor cells = experiment: Western blot of cGAS-STING signaling in tumor cells; format: cell-based, mouse
# PBM cells = experiment: Cell death of PBM cells in culture; format: cell-based, mouse; settings: 2.5 uM for 24 hours
compound,measurement,setting,value
"O=C(c1cc(Cc2n[nH]c(=O)c3ccccc23)ccc1F)N1CCN(C(=O)C2CC2)CC1 [olaparib, Olaparib]","CD80, CD86 and MHC class II expression on tumor associated DCs",PBM tumor-bearing mice,increased levels
same,CD103+ DCs at the tumor site,PBM tumor-bearing mice,increased
same,IFNγ and TNFα production by intratumoral CD4+ and CD8+ T cells,PBM tumor-bearing mice,significantly increased the production
same,PD-1/TIM-3 and PD-1/Lag3 co-expression (exhausted state) on intratumoral CD8+ T cells,PBM tumor-bearing mice,reduced expression; also recorded: reduced the exhausted state
same,effector CD8+ T cells in malignant ascites of the peritoneal cavity,PBM tumor-bearing mice,Increase
same,frequency of intratumoral FoxP3+ Treg,PBM tumor-bearing mice,not changed
same,immune cell (CD45+) infiltration into tumor,PBM tumor-bearing mice,Increased
same,intratumoral MDSC cells (CD11b+Gr1+; gMDSC),PBM tumor-bearing mice,reduced
same,number of intratumoral CD4+ and CD8+ T cells,PBM tumor-bearing mice,significantly increased; also recorded: increased the number
same,intratumoral MDSC cells (CD11b+Gr1+; gMDSC),PBM tumor-bearing mice; listed as Olaparib,decrease
same,phosphorylation of TBK1 and IRF3 in intratumoral DCs and macrophages,[1],increased pTBK1+p-IRF3+
same,phosphorylation of TBK1 and IRF3 in intratumoral DCs and macrophages,[1]; listed as Olaparib,increased phosphorylation
same,IFN-β and CXCL10 expression in PBM tumor tissues,[1]; RT-qPCR,induction; also recorded: Increased expression
same,phosphorylation of TBK1 and IRF3 (p-TBK1+p-IRF3+) in BMDCs,[2]; co-cultured with olaparib-treated PBM cells vs DMSO,increased phosphorylation
same,IFN-β and CXCL10 expression in BMDCs,"[2]; co-cultured with olaparib-treated vs non-treated/DMSO PBM cells, mRNA and protein",Significantly enhanced expression; also recorded: markedly increased expression
same,expression of immune-inhibitory ligand PD-L1 on tumor cells,PD-L1 on PBM tumor cells,highly enhanced expression; also recorded: significantly increased expression
same,STING signaling activity in tumor cells,PBM and PPM tumor cells,little STING signaling activity
same,cell death in PBM cells,PBM cells,did not induce substantial cell death
